Assay [1] has as its target T1, MK2 (Homo sapiens, UniProt P49137). The assay is described as follows: MK2 degradation in human THP-1 monocytic cells (MSD, 24 h). The arrangement: endogenous in cells. As to conditions: THP-1 cells; for DC50: read-out: MK2 MSD THP-1 degradation 24 h GMean External Abs DC50. The assay is classed as cell-based. The procedure:
The human monocytic cancer cell line THP-1 (ATCC (TIB-202)) was cultured in 96 well plates (Coming 3894) at a density of 200,000 cells per well in 100 microlitres in complete growth medium of RPMI 1640 (Gibco) pus 10% fetal Bovine Serum (Coming) and Penicillin/Streptomycin (SolarBio) at 37 degrees Celsius and 5% CO2. A serial dilution of each compound (usually 3 to 5 fold serial dilutions up to 10 separate concentration points) was added to individual wells from a 10 millimolar stock solution, at a background concentration of 0.1% DMSO and the cells were shaken at 600 rpm for 5 minutes and then were cultured for 24 hours at 37 degrees Celsius and 5% carbon dioxide. Separately, a custom MSD (MesoScaleDiscovery, L15XA-3) plate for detection of human MK2 was prepared by coating the plate with the commercial AbCarn ab247272 reagent in 1× Phosphate Buffered Saline at 40 microlitres per well and incubated at 4 degrees Celsius overnight. The next day, the MSD plate was washed with 150 microlitres of Tween buffered saline, blocked with MSD blocking buffer (3% BlockerA from MSD), and washed again.
(§1) The cell plate was centrifuged at 3,200 g for 5 minutes and the supernatant was discarded and 100 microlitres of RIPA lysis buffer (containing proteinase inhibitors, Boston BioProducts BP-115D) was added and the plate was sealed and shaken on ice for 20 minutes. The plate was centrifuged as before and 70 microlitres of sample lysate was added to the MSD plates and they were shaken at room temperature for I hour at 600 rpm. The MSD plate was washed 3 times as before and then the primary MK2 detection antibody (Santa Cruz sc-100393) was added at a final concentration of 1 microgram per ml at 25 microlitres per well and shaken at room temperature for 1 hour at 600 rpm.
(§2) After 3 more washes, the secondary detection antibody (SULFO-Tag anti rabbit antibody R32AB-5) was added at a final concentration of 1 microgram per ml at 25 microlitres per well and shaken at room temperature for 1 hour at 600 rpm. After 3 more washes, the 1X MSD (diluted from 5X concentrate with water) reading buffer was added at 150 microlitres per well and read on the MSD instrument Meso Sector S 600.
The inhibition/degradation curves and DC50 values were plotted and calculated using XL Fit (version v5.3.1.3) using equation 201 and a 4 parameter logistic model whereby fit=(A+((B−A)/(1+((x/C)D))) where A is the Bottom and B is the Top and C is the IC50and D is the slope and high C is the signal for the DMSO treated cells and Low C is the signal is the signal for the lysis buffer.

In assay [2] the target is T1, MK2. The assay is described as follows: MK2 degradation in human SW1353 cells (MSD, 24 h). The class given is cell-based. The arrangement: endogenous in cells; host or cells: SW-1353 (ATCC HTB-94). The note with it: for Dmax: read-out: MK2 MSD SW 1353 24 h Dmax %; for DC50: read-out: MK2 MSD SW1353 degradation 24 h GMean External Abs DC50. Here is the method: The human chondrocyte cancer cell line SW-1353 (ATCC(HTB-94)) was cultured in 96 well plates (Coming 3894) at a density of 200,000 cells per well in 100 microlitres in complete growth medium of Leibovitz's L-15 Medium (Gibco) pus 10% fetal Bovine Serum (Coming) and Penicillin/Streptomycin (SolarBio) at 37 degrees Celsius. A serial dilution of each compound (usually 3 to 5 fold serial dilutions up to 10 separate concentration points) was added to individual wells from a 10 millimolar stock solution, at a background concentration of 0.10% DMSO and the cells were shaken at 600 rpm for 5 minutes and then were cultured for 24 hours at 37 degrees Celsius. Separately, a custom MSD (MesoScaleDiscovery, L15XA-3) plate for detection of human MK2 was prepared by coating the plate with the commercial AbCam ab247272 reagent in 1× Phosphate Buffered Saline at 40 microlitres per well and incubated at 4 degrees Celsius overnight. The next day, the MSD plate was washed with 150 microlitres of Tween buffered saline, blocked with MSD blocking buffer (3% Blocker A from MSD), and washed again.
as §1, with “for 1” for “for I”
as §2
The inhibition/degradation curves and DC50 values were plotted and calculated using XL Fit (version v5.3.1.3) using equation 201 and a 4 parameter logistic model whereby fit=(A+((B−A)/(1+((x/C)D))) where A is the Bottom and B is the Top and C is the IC50 and D is the slope and high C is the signal for the DMSO treated cells and Low C is the signal is the signal for the lysis buffer.

Consider 13 compounds from patent US20260125397A1, “MK2 DEGRADERS AND USES THEREOF” (Kymera Therapeutics, Inc., priority 2023, published 2026).

The structures appear in SMILES notation.

T1 sequence (P49137 whole entry): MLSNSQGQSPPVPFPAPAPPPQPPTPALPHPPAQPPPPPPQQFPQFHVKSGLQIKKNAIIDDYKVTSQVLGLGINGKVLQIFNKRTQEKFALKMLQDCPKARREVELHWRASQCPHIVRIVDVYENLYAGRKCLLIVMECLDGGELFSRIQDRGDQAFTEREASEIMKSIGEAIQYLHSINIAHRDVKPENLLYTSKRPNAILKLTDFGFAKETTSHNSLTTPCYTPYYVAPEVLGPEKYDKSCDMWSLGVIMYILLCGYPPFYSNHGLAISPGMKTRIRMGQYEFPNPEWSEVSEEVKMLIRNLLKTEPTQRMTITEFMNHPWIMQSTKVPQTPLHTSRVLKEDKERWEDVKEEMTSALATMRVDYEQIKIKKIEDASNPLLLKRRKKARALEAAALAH

As a reminder, the Dmax is the largest share of the target that was removed. For orientation: DC50 means the concentration giving 50% degradation. Consider `Cn1c(=O)n(C2CCC(=O)NC2=O)c2ccc(C#CCN3CCN(c4ccc(-c5nccc(-c6cc7c([nH]6)C6(CC6)CNC7=O)n5)cc4)CC3)cc21` (stereo not shown) [I-41], for which, on MK2 [1], the Dmax was > 75% and the DC50 was < 1 nM. Also, on MK2 [2], the Dmax lay in the range of 50 to 75% and the DC50 is < 1 nM.

For the compound `COc1ccc2c(c1CCN1CCN(c3ccc(-c4nccc(-c5cc6c([nH]5)C5(CC5)CNC6=O)n4)cc3)CC1)n(C)c(=O)n2C1CCC(=O)NC1=O` (stereo not shown) [I-42], at MK2 [1], the Dmax is > 75% and the DC50 is < 1 nM. For the same compound, at MK2 [2], the Dmax was > 75% and the DC50 was < 1 nM.

Regarding `C[C@@H]1CNc2c(sc3ccc4nc(N5CCC(CN6CCC(N7CC(c8ccc9c(c8)n(C)c(=O)n9C8CCC(=O)NC8=O)C7)CC6)CC5)ccc4c23)C(=O)N1` (stereo partly shown) [I-43], on MK2 [1], the Dmax is > 75% and the DC50 was < 1 nM. In addition, on MK2 [2], the Dmax was > 75% and the DC50 is < 1 nM.

With `Cn1c(=O)n(C2CCC(=O)NC2=O)c2ccc(N3CC(CN4CCC(n5cc(-c6nccc(-c7cc8c([nH]7)C7(CC7)CNC8=O)n6)cn5)CC4)C3)cc21` (stereo not shown) [I-44], on MK2 [1], the Dmax was > 50% and the DC50 is > 100 nM. In addition, on MK2 [2], the Dmax is > 50% and the DC50 was > 100 nM.

As to `Cn1c(=O)n(C2CCC(=O)NC2=O)c2ccc(N3CC(CN4CCN(c5ccc(-c6nccc(-c7cc8c([nH]7)C7(CC7)CNC8=O)n6)cc5)CC4)C3)cc21` (stereo not shown) [I-45], at MK2 [1], the Dmax was > 50% and the DC50 is > 100 nM. For the same compound, on MK2 [2], the Dmax was > 50% and the DC50 is > 100 nM.

On to `C[C@@H]1CNc2c(sc3ccc4nc(N5CCC(N(CC(F)F)C6CC7(CCN(c8ccc9c(c8)n(C)c(=O)n9C8CCC(=O)NC8=O)CC7)C6)CC5)ccc4c23)C(=O)N1` (stereo partly shown) [I-46], for which, at MK2 [1], the Dmax was > 75% and the DC50 was < 1 nM. At MK2 [2], the Dmax is > 75% and the DC50 is < 1 nM.

Turning to `Cn1c(=O)n(C2CCC(=O)NC2=O)c2ccc(N3CC(CN4CCN(c5ccc(-c6nccc(-c7cc8c([nH]7)C7(CC7)CNC8=O)n6)cc5OC5CC5)CC4)C3)cc21` (stereo not shown) [I-47], on MK2 [1], the Dmax was > 50% and the DC50 was < 1 nM. Further, at MK2 [2], the Dmax is > 50% and the DC50 is > 100 nM.

In the case of `Cn1c(=O)n(C2CCC(=O)NC2=O)c2ccc(N3CC(CN4CCN(c5ccc(-c6nccc(-c7cc8c([nH]7)C7(CC7)CNC8=O)n6)cc5C(F)(F)F)CC4)C3)cc21` (stereo not shown) [I-48], on MK2 [1], the Dmax was > 75% and the DC50 was < 1 nM. Also, on MK2 [2], the Dmax fell in the range of 50 to 75% and the DC50 is < 1 nM.

On to `Cn1c(=O)n(C2CCC(=O)NC2=O)c2ccc(N3CC(CN4CCN(c5ccc(-c6nccc(-c7cc8c([nH]7)C7(CC7)CNC8=O)n6)cc5C5CC5)CC4)C3)cc21` (stereo not shown) [I-49], for which the values for the Dmax on MK2 [1] and on MK2 [2] were 50 to 75% and > 50%, respectively. In addition, the DC50 on MK2 [1] is < 1 nM; on MK2 [2] it was 10 to 100 nM.

As to `C[C@@H]1CNc2c(sc3ccc4nc(N5CCN(CC6CC7(CCN(c8ccc9c(N%10CCC(=O)NC%10=O)cncc9c8)CC7)C6)CC5)ccc4c23)C(=O)N1` [I-50], the Dmax at MK2 [1] and at MK2 [2] was > 75% each time. Moreover, the DC50 at MK2 [1] and on MK2 [2] was < 1 nM in each case.

Turning to `Cn1c(=O)n(C2CCC(=O)NC2=O)c2ccc(N3CCN(CC#Cc4ccc(-c5nccc(-c6cc7c([nH]6)C6(CC6)CNC7=O)n5)cc4)CC3)cc21` (stereo not shown) [I-51], on MK2 [1], the Dmax is > 75% and the DC50 was < 1 nM. On MK2 [2], the Dmax was > 50% and the DC50 is 1 to 10 nM.

As to `C[C@@H]1CNc2c(sc3ccc4nc(N5CCC(CN6CCC7(CC6)CN(c6ccc8c(c6)n(C)c(=O)n8C6CCC(=O)N(C)C6=O)C7)CC5)ccc4c23)C(=O)N1` (stereo partly shown) [I-52], at MK2 [1], the Dmax was > 75% and the DC50 was > 100 nM. For the same compound, on MK2 [2], the Dmax was > 75% and the DC50 was 1 to 10 nM.

With `COc1cc(-c2nccc(-c3cc4c([nH]3)C3(CC3)CNC4=O)n2)ccc1N1CCN(CC2CN(c3ccc4c(c3)n(C)c(=O)n4C3CCC(=O)NC3=O)C2)CC1` (stereo not shown) [I-54], on MK2 [1], the Dmax fell in the range of 50 to 75% and the DC50 is < 1 nM. For the same compound, on MK2 [2], the Dmax was > 50% and the DC50 is < 1 nM.
